Data: the supplement of paper PMC11061612

Experiments:
[1] = test system: A673 (Ewing's Sarcoma); assay: Bliss excess, mean over the matrix (fraction); higher = more synergy
How it was run: (§1)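 Bliss excess equals the observed combination effect minus the expected value EA + EB − EA·EB, where EA and EB are the effects of each agent alone. Combination Emax is the second-highest inhibition within the matrix. Inhibition was scaled from CellTiter-Glo 2.0 luminescence, with 0 set by vehicle wells and 1 by blank wells, after 72 hours of two-drug dosing of cells plated in 1536-well plates.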

[2] = test system: Hs-746T (Gastric Carcinoma); assay: as above
How it was run: as §1

[3] = test system: LNZTA3WT4 (Low Grade Glioma); assay: as above
How it was run: as §1

[4] = test system: NCI-H209 (Small Cell Lung Carcinoma); assay: as above
How it was run: as §1

[5] = test system: SW1573 (Lung Adenocarcinoma); assay: as above
How it was run: as §1

[6] = test system: A673 (Ewing's Sarcoma); assay: combination Emax (second highest fraction inhibited in the dose matrix, 72 h); higher = more inhibition; extreme values may be limits of the assay
How it was run: as §1

[7] = test system: BE-13 (T-Lymphoblastic Leukemia); assay: as above
How it was run: as §1

[8] = test system: CAL-72 (Osteosarcoma); assay: as above
How it was run: as §1

[9] = test system: ESS-1 (Other Solid Carcinomas); assay: as above
How it was run: as §1

[10] = test system: EW-11 (Ewing's Sarcoma); assay: as above
How it was run: as §1

[11] = test system: HuCCT1 (Biliary Tract Carcinoma); assay: as above
How it was run: as §1

[12] = test system: KMRC-20 (Kidney Carcinoma); assay: as above
How it was run: as §1

[13] = test system: KYAE-1 (Esophageal Adenocarcinoma); assay: as above
How it was run: as §1

[14] = test system: LS-123 (Colorectal Carcinoma); assay: as above
How it was run: as §1

[15] = test system: NCI-H2052 (Mesothelioma); assay: as above
How it was run: as §1

[16] = test system: NUGC-4 (Gastric Carcinoma); assay: as above
How it was run: as §1

[17] = test system: OE21 (Esophageal Squamous Cell Carcinoma); assay: as above
How it was run: as §1

[18] = test system: SAS (Oral Cavity Carcinoma); assay: as above
How it was run: as §1

[19] = test system: SW1710 (Bladder Carcinoma); assay: as above
How it was run: as §1

[20] = test system: WSU-NHL (B-Cell Non-Hodgkin's Lymphoma); assay: as above
How it was run: as §1

SMILES	Bliss excess [1]	Bliss excess [2]	Bliss excess [3]	Bliss excess [4]	Bliss excess [5]	combination Emax [6]	combination Emax [7]	combination Emax [8]	combination Emax [9]	combination Emax [10]	combination Emax [11]	combination Emax [12]	combination Emax [13]	combination Emax [14]	combination Emax [15]	combination Emax [16]	combination Emax [17]	combination Emax [18]	combination Emax [19]	combination Emax [20]
CCN(CCO)CCCOc1ccc2c(Nc3cc(CC(=O)Nc4cccc(F)c4)[nH]n3)ncnc2c1 [AZD2811] + O=C(c1cc(Cc2n[nH]c(=O)c3ccccc23)ccc1F)N1CCN(C(=O)C2CC2)CC1 [Olaparib] (first compound max 1 µM, 7x7, partner max 10 µM)	-0.0906	-0.0553	-0.0005	0.0418	0.0123	0.841	0.824	0.322	0.63	0.564	0.25	0.24	0.208	0.301	0.184	0.21	0.255	0.197	0.185	0.931
COc1nnc2ccc(N3CCC(c4ccc(OCCN5CCN(C)C(=O)[C@H]5C)cc4)CC3)nn12 [AZD5153] + C=CCn1c(=O)c2cnc(Nc3ccc(N4CCN(C)CC4)cc3)nc2n1-c1cccc(C(C)(C)O)n1 [AZD1775] (first compound max 1 µM, partner max 1 µM)	-0.055	-0.0556	-0.0356	0.0223	-0.0388	0.602	1	0.647	0.898	0.572	0.767	0.694	0.0798	0.546	0.407	0.641	0.742	0.823	0.36	0.952
COc1nnc2ccc(N3CCC(c4ccc(OCCN5CCN(C)C(=O)[C@H]5C)cc4)CC3)nn12 [AZD5153] + CC1(C)CCC(CN2CCN(c3ccc(C(=O)NS(=O)(=O)c4ccc(NCC5CCOCC5)c([N+](=O)[O-])c4)c(Oc4cnc5[nH]ccc5c4)c3)CC2)=C(c2ccc(Cl)cc2)C1 [Venetoclax] (first compound max 1 µM, 7x7, partner max 1 µM)	-0.0706	-0.119	-0.0571	-0.008	-0.118	0.505	0.708	0.495	0.63	0.457	0.511	0.452	0.0501	0.43	0.359	0.567	0.662	0.754	0.291	0.978
COc1nnc2ccc(N3CCC(c4ccc(OCCN5CCN(C)C(=O)[C@H]5C)cc4)CC3)nn12 [AZD5153] + CCN(CCO)CCCOc1ccc2c(Nc3cc(CC(=O)Nc4cccc(F)c4)[nH]n3)ncnc2c1 [AZD2811] (first compound max 1 µM, 7x7, partner max 1 µM)	-0.0389	-0.058	-0.0415	-0.0145	-0.0609	0.616	0.92	0.503	0.809	0.452	0.498	0.414	0.0877	0.44	0.395	0.557	0.693	0.819	0.33	0.934
COc1nnc2ccc(N3CCC(c4ccc(OCCN5CCN(C)C(=O)[C@H]5C)cc4)CC3)nn12 [AZD5153] + C[C@@H]1COCCN1C2=NC(=NC(=C2)C3(CC3)[S@](=N)(=O)C)C4=C5C=CNC5=NC=C4 [AZD6738] (first compound max 1 µM, 7x7, partner max 10 µM)	0.0361	0.0429	0.0648	0.019	0.109	0.84	0.985	0.784	0.949	0.692	0.666	0.775	0.263	0.59	0.209	0.652	0.858	0.921	0.396	0.99
COc1nnc2ccc(N3CCC(c4ccc(OCCN5CCN(C)C(=O)[C@H]5C)cc4)CC3)nn12 [AZD5153] + Cc1c2c(nn1C)CSCc1cc(n(C)n1)CSc1cc(c3ccccc3c1)OCCCc1c(C(=O)O)n(C)c3c-2c(Cl)ccc13 [AZD5991] (first compound max 1 µM, 7x7, partner max 1 µM)	0.0041	-0.0244	0.0112	0.0546	-0.0366	0.699	0.998	0.792	0.898	0.945	0.495	0.37	0.0912	0.406	0.328	0.652	0.83	0.823	0.355	1
COc1nnc2ccc(N3CCC(c4ccc(OCCN5CCN(C)C(=O)[C@H]5C)cc4)CC3)nn12 [AZD5153] + Cn1cnc2c(F)c(Nc3ccc(Br)cc3Cl)c(C(=O)NOCCO)cc21 [Selumetinib] (first compound max 1 µM, 7x7, partner max 10 µM)	0.111	-0.0227	-0.143	-0.0214	-0.0062	0.604	0.672	0.389	0.585	0.424	0.826	0.414	0.116	0.794	0.403	0.831	0.861	0.86	0.441	0.954
